Results on four compounds are retold here after patent publication US9480679B2, “Methods for treating malaria, tuberculosis and MAC diseases” (priority 2009, dated 2016).

Structures are written as SMILES. ≈ marks a conversion by molar mass, not a printed value. Where “and” joins values, the source holds several entries; their conditions need not be identical. Identical values can stand only once.

Test [1] deals with P. falciparum NF54. As to the kind of experiment: In vitro P. falciparum 120 hour assay (96+24). Format: cell-based. As to conditions: Plasmodium falciparum. Here is the method:
EXAMPLE. In vitro and in vivo activity against different species of Plasmodium parasites. CEM-101 was tested against intra-erythrocytic forms of P. falciparum derived from asynchronous cultures of the strain […]. Parasite growth over 120 h was measured by the incorporation of radiolabelled [^3H]hypoxanthine (in hypoxanthine free culture medium) added after 96 h of drug incubation and 24 h prior to the termination of the test. CEM-101 was followed for 120 h. CEM-101 has delayed activity when compared to other agents.
In vitro P. falciparum data for CEM-101 in the 120 h Assay (96+24)

Test [2] has as its system P. berghei. Put plainly: Murine P. berghei model, oral 1x or 4x 100 mg/kg. The following applies: mice; for Parasitized RBC over 100 (made by FACS): individual animals. The format is in vivo. Here is the method: EXAMPLE. CEM-101 activity in infected mice.
EXAMPLE. CEM-101 was tested in the murine P. berghei model as described by Vennerstrom et al. Nature 430(7002):900-904 (2004), the disclosure of which is incorporated herein by reference.
(A flow cytometer gives signals particle by particle.)

Test [3] deals with M. tuberculosis. The following applies: 100 mg/kg once daily for 3 weeks (Zhu 2008); cited from earlier work.
In test [4] the test system is replicating M. tuberculosis. The following applies: reported values; cited from earlier work.
Test [5] relates to M. avium. The following applies: Bermudez 2001; cited from earlier work.
Test [6] has as its system P. falciparum NF54. As to the kind of experiment: In vitro P. falciparum 72 hour assay (48+24). The format is cell-based. As to conditions: Plasmodium falciparum, NF54, 72 h. The protocol:
EXAMPLE. In vitro and in vivo activity against different species of Plasmodium parasites. CEM-101 was tested against intra-erythrocytic forms of P. falciparum derived from asynchronous cultures of the strain […]. […] CEM-101 was followed for 120 h. CEM-101 has delayed activity when compared to other agents.
In vitro P. falciparum data for CEM-101 in the 72 h Assay (48+24)

As for `CCC[C@@H]1C[C@@H](C(=O)N[C@@H]([C@H]2O[C@H](SC)[C@H](O)[C@@H](O)[C@H]2O)[C@H](C)Cl)N(C)C1` [Clindamycin], the IC50 – broadly, the concentration that gives 50% inhibition – in test [1] (NF54, 120 h assay (96+24), read-out: IC50 NF54) was 5.3 ng/mL (≈ 12.5 nM); in test [1] (NF54, 120 hour assay (96+24), read-out: IC50 NF54 Test 1), below 7.8 ng/mL; in test [1] (NF54, 120 hour assay (96+24), read-out: IC50 NF54 Test 2) it was 5.3 ng/mL (≈ 12.5 nM); in test [1] (NF54, 120 hour assay (96+24), read-out: IC50 NF54 Test 3), 5.3 ng/mL (≈ 12.5 nM). The “Cure (%)” value was 0% in test [2] (4 × 100 mg/kg oral, DMSO) and 0% in test [2] (4 × 100 mg/kg oral, HPMC).

With `CC[C@H]1OC(=O)[C@H](C)C(=O)[C@H](C)[C@@H](O[C@@H]2O[C@H](C)C[C@H](N(C)C)[C@H]2O)[C@](C)(OC/C=C/c2cnc3ccccc3c2)C[C@@H](C)C(=O)[C@H](C)[C@H]2NC(=O)O[C@@]21C` [Cethromycin], the “reduction of CFU in the lungs of mice” value in test [3] is listed as “failed to significantly reduce CFU”. Besides, in test [4], the “MABA MIC” value is 4000 ng/mL. The “bactericidal activity against M. avium” value in test [5] is recorded as “lack of significant bactericidal activity”.

`C[C@H]1[C@H](OC(=O)CCC(=O)O)O[C@@H]2O[C@@]3(C)CC[C@H]4[C@H](C)CC[C@@H]1[C@@]24OO3` [Artesunate]: the IC50 in test [1] (NF54, 120 h, read-out: IC50 NF54) was determined as 3.3 ng/mL (≈ 8.58 nM); in test [1] (NF54, 120 h, read-out: IC50 NF54 Test 1), 4.2 ng/mL (≈ 10.9 nM); in test [1] (NF54, 120 h, read-out: IC50 NF54 Test 2), 3.9 ng/mL (≈ 10.1 nM); in test [1] (NF54, 120 h, read-out: IC50 NF54 Test 3), 3.3 ng/mL (≈ 8.58 nM); in test [6] (read-out: IC50 NF54 TEST 1), 3 ng/mL (≈ 7.8 nM); in test [6] (read-out: IC50 NF54 TEST 2), 3.2 ng/mL (≈ 8.32 nM). Further, the IC50 in test [6] (read-out: IC50 NF54 TEST 3) is 3 ng/mL (≈ 7.8 nM); in test [6] (read-out: IC50 NF54 TEST 4) it was 2.8 ng/mL (≈ 7.28 nM); in test [6] (read-out: IC50 NF54 Test 1), 3 ng/mL (≈ 7.8 nM); in test [6] (read-out: IC50 NF54 Test 2) it was 3.2 ng/mL (≈ 8.32 nM); in test [6] (read-out: IC50 NF54 Test 3), 3 ng/mL (≈ 7.8 nM); in test [6] (read-out: IC50 NF54 Test 4), 2.8 ng/mL (≈ 7.28 nM).

Consider `CC[C@H]1OC(=O)[C@H](C)[C@@H](O[C@H]2C[C@@](C)(OC)[C@@H](O)[C@H](C)O2)[C@H](C)[C@@H](O[C@@H]2O[C@H](C)C[C@H](N(C)C)[C@H]2O)[C@](C)(O)C[C@@H](C)CN(C)[C@H](C)[C@@H](O)[C@]1(C)O` [Azithromycin, reference compound], for which the “Activity (%)” value stood at 70.39% in test [2] (1 × 100 mg/kg oral, DMSO); 65.19% in test [2] (1 × 100 mg/kg oral, HPMC); 99.11% in test [2] (4 × 100 mg/kg oral, DMSO); 99.13% in test [2] (4 × 100 mg/kg oral, HPMC). Also, the “Survival” value was 14.0 days in test [2] (1 × 100 mg/kg oral, DMSO); 14.0 days in test [2] (1 × 100 mg/kg oral, HPMC); 30.0 days in test [2] (4 × 100 mg/kg oral, DMSO, survivors sacrificed on Day 31); 24.0 days in test [2] (4 × 100 mg/kg oral, HPMC, survivors sacrificed on Day 31). The “Cure (%)” value in test [2] (4 × 100 mg/kg oral, DMSO) is 0%; in test [2] (4 × 100 mg/kg oral, HPMC), 0%. In addition, the “blood from treated animals parasite free or not” value in test [2] (4× 100 mg/kg p.o.) is “is not”. Moreover, the “Visual Observation (parasites in blood)” value in test [2] (4× 100 mg/kg p.o., DMSO) is given as “pos”; in test [2] (4× 100 mg/kg p.o., HPMC) it was “pos”. Also, the “Parasitized RBC over 100 (made by FACS)” value in test [2] (4× 100 mg/kg p.o., DMSO, 100 mg/kg) was 34.32 and 2.20 and 36.31; in test [2] (4× 100 mg/kg p.o., HPMC), 74.04.
